Test results: publication PMC11850817 (Scientific Reports, 2025)

How the values were obtained:
[1] = test system: EBC-1; assay: MTT antiproliferative assay, EBC-1; format: cell-based, human; settings: Homo sapiens, EBC-1, 72 h, read-out: IC50 EBC-1
[2] = test system: AsPC-1; assay: MTT antiproliferative assay, AsPC-1; format: cell-based, human; settings: Homo sapiens, ASPC1, 72 h, read-out: IC50 AsPC-1
[3] = test system: Mia-Paca-2; assay: MTT antiproliferative assay, Mia-Paca-2; format: cell-based, human; settings: Homo sapiens, MIA PaCa-2, 72 h, read-out: IC50 Mia-Paca-2
[4] = test system: HT-29; assay: MTT antiproliferative assay, HT-29; format: cell-based, human; settings: Homo sapiens, HT-29, 72 h, read-out: IC50 HT-29
[5] = test system: MCF-7; assay: MTT antiproliferative assay, MCF-7; format: cell-based, human; settings: Homo sapiens, MCF7, 72 h, read-out: IC50 MCF-7
[6] = test system: NIH3T3; assay: MTT assay, NIH3T3 non-cancer cell line; format: cell-based; settings: Mus musculus, NIH3T3, 72 h, read-out: IC50 NIH3T3
[7] = target: ABL1 (Homo sapiens, UniProt P00519); assay: Radiometric kinase assay; format: biochemical; settings: read-out: Kinase inhibition (%) ABL1
[8] = target: AKT1 (Homo sapiens, UniProt P31749); assay: Radiometric kinase assay; format: biochemical; settings: read-out: Kinase inhibition (%) AKT1
[9] = target: ALK (Homo sapiens, UniProt Q9UM73); assay: Radiometric kinase assay; format: biochemical; settings: read-out: Kinase inhibition (%) ALK
[10] = target: T1, AXL (Homo sapiens, UniProt P30530); assay: Radiometric kinase assay; format: biochemical; settings: read-out: Kinase inhibition (%) AXL
T1 sequence (P30530 26-894): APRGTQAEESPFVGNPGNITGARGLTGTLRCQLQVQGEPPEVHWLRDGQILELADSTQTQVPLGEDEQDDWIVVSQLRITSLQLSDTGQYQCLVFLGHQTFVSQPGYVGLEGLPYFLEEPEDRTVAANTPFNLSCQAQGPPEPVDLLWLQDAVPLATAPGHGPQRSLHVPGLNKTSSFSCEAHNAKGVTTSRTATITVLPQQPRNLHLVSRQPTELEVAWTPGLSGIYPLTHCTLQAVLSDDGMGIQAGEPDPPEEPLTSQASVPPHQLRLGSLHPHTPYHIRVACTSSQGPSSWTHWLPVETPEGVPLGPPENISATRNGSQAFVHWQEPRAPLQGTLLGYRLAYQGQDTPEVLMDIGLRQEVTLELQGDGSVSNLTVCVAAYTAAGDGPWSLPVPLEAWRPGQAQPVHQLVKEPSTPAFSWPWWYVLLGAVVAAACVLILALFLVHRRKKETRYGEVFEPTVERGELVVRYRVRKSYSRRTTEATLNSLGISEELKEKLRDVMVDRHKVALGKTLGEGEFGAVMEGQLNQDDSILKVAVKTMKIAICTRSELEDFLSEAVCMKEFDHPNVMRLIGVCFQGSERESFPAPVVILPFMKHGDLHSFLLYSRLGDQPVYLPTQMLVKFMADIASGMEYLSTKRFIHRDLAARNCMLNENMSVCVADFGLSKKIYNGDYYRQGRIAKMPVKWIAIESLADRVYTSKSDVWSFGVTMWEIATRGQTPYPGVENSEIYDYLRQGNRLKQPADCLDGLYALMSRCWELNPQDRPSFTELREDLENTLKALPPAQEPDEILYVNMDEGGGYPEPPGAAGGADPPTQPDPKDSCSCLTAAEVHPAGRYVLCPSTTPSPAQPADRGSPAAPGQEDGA

[11] = target: BRAF (Homo sapiens, UniProt P15056); assay: Radiometric kinase assay; format: biochemical; settings: read-out: Kinase inhibition (%) BRAF
[12] = target: CDK2/cyclin A (Homo sapiens, UniProt P24941); assay: Radiometric kinase assay; format: biochemical; settings: read-out: Kinase inhibition (%) CDK2/cyclin A
[13] = target: ERBB2 (Her-2) (Homo sapiens, UniProt P04626); assay: Radiometric kinase assay; format: biochemical; settings: read-out: Kinase inhibition (%) ERBB2 (Her-2)
[14] = target: FGFR1 (Homo sapiens, UniProt P11362); assay: Radiometric kinase assay; format: biochemical; settings: read-out: Kinase inhibition (%) FGFR1
[15] = target: FLT4 (VEGFR3) (Homo sapiens, UniProt P35916); assay: Radiometric kinase assay; format: biochemical; settings: read-out: Kinase inhibition (%) FLT4 (VEGFR3)
[16] = target: IGF1R (Homo sapiens, UniProt P08069); assay: Radiometric kinase assay; format: biochemical; settings: read-out: Kinase inhibition (%) IGF1R
[17] = target: MAPK1 (ERK2) (Homo sapiens, UniProt P28482); assay: Radiometric kinase assay; format: biochemical; settings: read-out: Kinase inhibition (%) MAPK1 (ERK2)
[18] = target: MET (Homo sapiens, UniProt P08581); assay: Radiometric kinase assay; format: biochemical; settings: read-out: Kinase inhibition (%) MET
[19] = target: NTRK2 (TrkB) (Homo sapiens, UniProt Q16620); assay: Radiometric kinase assay; format: biochemical; settings: read-out: Kinase inhibition (%) NTRK2 (TrkB)
[20] = target: PDGFRA (PDGFRα) (Homo sapiens, UniProt P16234); assay: Radiometric kinase assay; format: biochemical; settings: read-out: Kinase inhibition (%) PDGFRA (PDGFRα)
[21] = target: PIK3CA (Homo sapiens, UniProt P42336); assay: Radiometric kinase assay; format: biochemical; settings: read-out: Kinase inhibition (%) PIK3CA
[22] = target: ROS1 (Homo sapiens, UniProt P08922); assay: Radiometric kinase assay; format: biochemical; settings: read-out: Kinase inhibition (%) ROS1
[23] = target: WEE1 (Homo sapiens, UniProt P30291); assay: Radiometric kinase assay; format: biochemical; settings: read-out: Kinase inhibition (%) WEE1
[24] = test system: AsPC-1 cells; assay: Cell cycle test, RNase/PI flow cytometry; format: cell-based, human; settings: AsPC-1, 3, 10, 30, 50 µM, 48 h
[25] = test system: AsPC-1 cells; assay: Apoptosis by Hoechst 33,258 staining; format: cell-based, human; settings: AsPC-1, 10 and 30 µM, 48 h
[26] = test system: EBC-1, AsPC-1, Mia-Paca-2, HT-29, MCF-7 cancer cells; assay: MTT antiproliferative assay, cancer cell lines summarised; format: cell-based, human; settings: Homo sapiens, read-out: IC50 range against tested cell lines

PDGFRA (PDGFRα), sequence (P16234 24-1089): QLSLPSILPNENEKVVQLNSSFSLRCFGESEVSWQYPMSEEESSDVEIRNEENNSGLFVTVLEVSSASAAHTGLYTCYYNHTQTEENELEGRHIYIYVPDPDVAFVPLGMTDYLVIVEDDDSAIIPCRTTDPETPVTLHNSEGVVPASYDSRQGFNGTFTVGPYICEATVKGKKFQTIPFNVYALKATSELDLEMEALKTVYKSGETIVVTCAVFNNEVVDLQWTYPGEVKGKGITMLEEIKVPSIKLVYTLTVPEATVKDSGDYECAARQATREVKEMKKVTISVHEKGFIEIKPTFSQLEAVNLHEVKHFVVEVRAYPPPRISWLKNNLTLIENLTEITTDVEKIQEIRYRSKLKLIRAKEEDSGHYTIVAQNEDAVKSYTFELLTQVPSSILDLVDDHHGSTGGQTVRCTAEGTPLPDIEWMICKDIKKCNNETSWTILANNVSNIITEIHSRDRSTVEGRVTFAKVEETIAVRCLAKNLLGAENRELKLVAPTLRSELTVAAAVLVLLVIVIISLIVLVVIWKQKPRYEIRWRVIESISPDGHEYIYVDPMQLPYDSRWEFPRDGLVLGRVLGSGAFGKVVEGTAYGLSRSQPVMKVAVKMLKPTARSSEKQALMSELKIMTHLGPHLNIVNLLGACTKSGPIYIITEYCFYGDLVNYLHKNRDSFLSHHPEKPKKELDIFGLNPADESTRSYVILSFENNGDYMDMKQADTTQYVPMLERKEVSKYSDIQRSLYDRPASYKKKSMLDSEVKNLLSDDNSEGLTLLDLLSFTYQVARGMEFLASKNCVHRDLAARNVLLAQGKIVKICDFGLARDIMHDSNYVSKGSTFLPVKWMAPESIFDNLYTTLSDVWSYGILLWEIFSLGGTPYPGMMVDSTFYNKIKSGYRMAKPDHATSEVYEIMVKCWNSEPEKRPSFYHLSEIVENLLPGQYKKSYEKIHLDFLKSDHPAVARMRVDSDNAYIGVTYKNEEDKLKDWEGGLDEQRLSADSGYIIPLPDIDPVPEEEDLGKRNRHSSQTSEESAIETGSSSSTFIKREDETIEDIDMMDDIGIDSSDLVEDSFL
ROS1, sequence (P08922 28-2347): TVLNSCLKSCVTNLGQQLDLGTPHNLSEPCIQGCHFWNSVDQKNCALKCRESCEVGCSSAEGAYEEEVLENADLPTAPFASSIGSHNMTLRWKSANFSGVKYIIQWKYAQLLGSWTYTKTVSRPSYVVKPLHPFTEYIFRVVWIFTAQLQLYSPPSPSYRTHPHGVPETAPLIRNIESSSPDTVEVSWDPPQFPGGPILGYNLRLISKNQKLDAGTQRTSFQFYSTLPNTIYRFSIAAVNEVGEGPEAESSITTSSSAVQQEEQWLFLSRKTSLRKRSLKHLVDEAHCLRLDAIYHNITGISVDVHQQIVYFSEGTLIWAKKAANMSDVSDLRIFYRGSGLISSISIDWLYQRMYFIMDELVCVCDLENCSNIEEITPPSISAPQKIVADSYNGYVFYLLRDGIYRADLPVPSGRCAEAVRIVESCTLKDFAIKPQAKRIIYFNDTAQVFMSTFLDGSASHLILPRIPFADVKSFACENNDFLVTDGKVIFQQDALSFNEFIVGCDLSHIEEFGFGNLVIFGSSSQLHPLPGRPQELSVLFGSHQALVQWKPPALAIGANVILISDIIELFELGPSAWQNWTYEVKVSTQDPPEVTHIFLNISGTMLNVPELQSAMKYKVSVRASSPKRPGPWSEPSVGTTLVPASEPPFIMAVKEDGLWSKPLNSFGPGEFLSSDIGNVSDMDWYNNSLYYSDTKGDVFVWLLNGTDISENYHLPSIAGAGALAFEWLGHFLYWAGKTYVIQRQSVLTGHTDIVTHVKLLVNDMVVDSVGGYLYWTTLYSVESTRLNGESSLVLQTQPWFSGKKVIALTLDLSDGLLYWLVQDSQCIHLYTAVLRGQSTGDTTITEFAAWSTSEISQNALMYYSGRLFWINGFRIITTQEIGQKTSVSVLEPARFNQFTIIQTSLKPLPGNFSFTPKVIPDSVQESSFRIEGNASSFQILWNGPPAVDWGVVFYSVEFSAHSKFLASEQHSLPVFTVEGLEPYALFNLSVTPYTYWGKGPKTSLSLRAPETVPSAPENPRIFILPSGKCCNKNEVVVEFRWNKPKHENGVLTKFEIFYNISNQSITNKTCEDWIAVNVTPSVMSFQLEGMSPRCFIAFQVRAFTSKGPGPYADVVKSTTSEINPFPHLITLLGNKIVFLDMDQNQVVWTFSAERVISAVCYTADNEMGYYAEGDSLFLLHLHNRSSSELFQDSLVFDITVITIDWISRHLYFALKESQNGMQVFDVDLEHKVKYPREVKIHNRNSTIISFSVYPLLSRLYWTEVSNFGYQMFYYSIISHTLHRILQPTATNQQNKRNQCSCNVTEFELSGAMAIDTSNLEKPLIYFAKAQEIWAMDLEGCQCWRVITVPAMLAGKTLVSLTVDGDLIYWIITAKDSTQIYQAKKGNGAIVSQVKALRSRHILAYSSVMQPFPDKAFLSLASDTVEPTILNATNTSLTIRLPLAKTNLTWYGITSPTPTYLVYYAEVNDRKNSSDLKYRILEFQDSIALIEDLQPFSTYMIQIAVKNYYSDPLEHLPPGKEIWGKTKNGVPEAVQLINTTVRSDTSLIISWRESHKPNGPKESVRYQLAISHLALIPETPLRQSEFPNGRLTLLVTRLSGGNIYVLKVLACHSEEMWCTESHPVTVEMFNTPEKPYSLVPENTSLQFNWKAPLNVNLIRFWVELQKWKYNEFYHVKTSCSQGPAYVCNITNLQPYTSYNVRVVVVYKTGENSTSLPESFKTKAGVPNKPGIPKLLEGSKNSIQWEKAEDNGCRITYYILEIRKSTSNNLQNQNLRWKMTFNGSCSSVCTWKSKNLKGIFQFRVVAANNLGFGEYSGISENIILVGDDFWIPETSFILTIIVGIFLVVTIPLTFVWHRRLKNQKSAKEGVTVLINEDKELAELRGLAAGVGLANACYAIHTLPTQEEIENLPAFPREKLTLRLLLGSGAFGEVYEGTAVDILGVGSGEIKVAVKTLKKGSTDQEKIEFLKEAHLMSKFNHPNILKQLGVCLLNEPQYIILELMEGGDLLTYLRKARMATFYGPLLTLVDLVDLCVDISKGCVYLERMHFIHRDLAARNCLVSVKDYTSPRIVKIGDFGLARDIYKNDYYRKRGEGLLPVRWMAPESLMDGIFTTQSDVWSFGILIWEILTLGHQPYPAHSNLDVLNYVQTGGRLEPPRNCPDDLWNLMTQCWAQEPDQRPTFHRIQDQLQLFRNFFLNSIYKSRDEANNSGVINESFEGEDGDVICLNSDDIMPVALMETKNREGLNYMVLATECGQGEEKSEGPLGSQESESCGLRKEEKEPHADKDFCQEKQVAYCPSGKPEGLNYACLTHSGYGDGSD
ERBB2 (Her-2), sequence (P04626 23-1255): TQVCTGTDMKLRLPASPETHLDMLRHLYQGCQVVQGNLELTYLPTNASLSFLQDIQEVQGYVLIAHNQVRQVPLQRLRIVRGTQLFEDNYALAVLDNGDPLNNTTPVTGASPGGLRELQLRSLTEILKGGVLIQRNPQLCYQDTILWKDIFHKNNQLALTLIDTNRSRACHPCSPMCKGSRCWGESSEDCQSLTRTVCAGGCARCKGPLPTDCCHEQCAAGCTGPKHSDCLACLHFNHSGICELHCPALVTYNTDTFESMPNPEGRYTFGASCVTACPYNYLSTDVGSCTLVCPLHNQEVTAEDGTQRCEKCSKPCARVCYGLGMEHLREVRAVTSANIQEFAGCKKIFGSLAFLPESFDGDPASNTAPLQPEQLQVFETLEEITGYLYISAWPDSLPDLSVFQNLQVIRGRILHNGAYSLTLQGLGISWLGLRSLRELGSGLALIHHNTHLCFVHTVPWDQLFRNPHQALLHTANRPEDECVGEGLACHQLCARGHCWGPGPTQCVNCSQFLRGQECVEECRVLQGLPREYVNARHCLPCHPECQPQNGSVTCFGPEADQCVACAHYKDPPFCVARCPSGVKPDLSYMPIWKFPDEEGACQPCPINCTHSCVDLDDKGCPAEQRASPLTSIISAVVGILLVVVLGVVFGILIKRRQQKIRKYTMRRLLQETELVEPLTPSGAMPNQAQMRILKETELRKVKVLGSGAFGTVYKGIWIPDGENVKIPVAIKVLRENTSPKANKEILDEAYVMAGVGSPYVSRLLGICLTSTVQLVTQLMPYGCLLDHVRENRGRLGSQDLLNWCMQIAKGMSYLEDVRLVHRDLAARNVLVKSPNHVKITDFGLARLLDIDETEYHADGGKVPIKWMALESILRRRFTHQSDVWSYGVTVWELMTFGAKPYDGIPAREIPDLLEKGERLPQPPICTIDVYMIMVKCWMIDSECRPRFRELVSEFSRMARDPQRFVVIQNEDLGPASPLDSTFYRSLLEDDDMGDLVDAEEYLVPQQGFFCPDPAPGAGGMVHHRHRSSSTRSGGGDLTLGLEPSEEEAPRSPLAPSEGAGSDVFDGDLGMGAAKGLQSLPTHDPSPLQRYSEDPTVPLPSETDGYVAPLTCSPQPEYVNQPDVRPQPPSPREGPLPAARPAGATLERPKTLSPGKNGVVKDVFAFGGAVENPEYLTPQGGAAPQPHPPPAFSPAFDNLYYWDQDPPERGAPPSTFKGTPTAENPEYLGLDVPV
AKT1, sequence (P31749 whole entry): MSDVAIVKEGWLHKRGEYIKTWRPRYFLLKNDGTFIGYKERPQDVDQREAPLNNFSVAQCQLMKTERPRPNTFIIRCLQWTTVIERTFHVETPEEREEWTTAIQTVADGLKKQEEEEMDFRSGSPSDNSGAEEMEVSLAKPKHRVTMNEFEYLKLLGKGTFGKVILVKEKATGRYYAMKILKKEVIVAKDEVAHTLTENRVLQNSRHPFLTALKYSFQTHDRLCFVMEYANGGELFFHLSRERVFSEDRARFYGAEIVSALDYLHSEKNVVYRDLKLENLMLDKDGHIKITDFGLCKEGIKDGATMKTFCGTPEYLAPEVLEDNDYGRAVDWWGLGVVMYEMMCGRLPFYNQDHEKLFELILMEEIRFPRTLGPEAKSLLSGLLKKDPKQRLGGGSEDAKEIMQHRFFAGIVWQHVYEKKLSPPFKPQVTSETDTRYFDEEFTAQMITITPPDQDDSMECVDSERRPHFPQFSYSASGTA

SMILES: O=C1C=C(Nc2ccc(OCc3cn(Cc4ccc(Cl)c(Cl)c4)nn3)cc2)C(=O)c2ccccc21 [Compound 4e, 2-((4-((1-(3,4-Dichlorobenzyl)−1H-1,2,3-triazol-4-yl)methoxy)phenyl)amino) naphthalene-1,4-dione]
- IC50 [1]: 0.3 ± 0.1 µM
- IC50 [2]: 1.1 ± 0.2 µM
- IC50 [3]: 0.8 ± 0.1 µM
- IC50 [4]: 0.6 ± 0.2 µM
- IC50 [5]: 7.1 ± 4.3 µM
- IC50 [6]: 6.5 ± 1.2 µM
- inhibition at 10 µM [7]: 13%
- inhibition at 10 µM [8]: 15%
- inhibition at 10 µM [9]: 15%
- inhibition at 10 µM [10]: 5%
- inhibition at 10 µM [11]: -7%
- inhibition at 10 µM [12]: 9%
- inhibition at 10 µM [13]: 2%
- inhibition at 10 µM [14]: -5%
- inhibition at 10 µM [15]: 30%
- inhibition at 10 µM [16]: -11%
- inhibition at 10 µM [17]: 6%
- inhibition at 10 µM [18]: -14%
- inhibition at 10 µM [19]: 6%
- inhibition at 10 µM [20]: 43%
- inhibition at 10 µM [21]: 3%
- inhibition at 10 µM [22]: -2%
- inhibition at 10 µM [23]: -4%
- Effect on cell cycle distribution (S and G2/M phases) [24]: dose-dependently increased the number of cells in the S phase and simultaneously reduced the cells in G2/M phase
- Effect on sub-G1 and G0/G1 phases [24]: increase in cells in sub-G1 phase, while reducing G0/G1 cells
- Apoptosis induction (nuclear morphology) [25]: characteristic features of apoptosis including densely packed chromatin within the nucleus as well as nuclear fragmentation
- IC50 [26]: 0.3 to 7.1 µM
